Results taken from patent US12479840B2, “HMG-CoA reductase degradation inducing compound” (Uppthera, priority 2020, dated 2025).

biological target: T1, HMG-CoA reductase (Homo sapiens, UniProt P04035); test: HMG-CoA reductase (HMGCR) degradation in HepG2 cells by western blotting; format: cell-based; settings: treated for 18 hours, ratio of HMG-CoA reductase to GAPDH, read-out: DC50
T1 construct: endogenous in cells; host or cells: HepG2 (Korea Cell Line Bank)
T1 sequence (P04035 1-888): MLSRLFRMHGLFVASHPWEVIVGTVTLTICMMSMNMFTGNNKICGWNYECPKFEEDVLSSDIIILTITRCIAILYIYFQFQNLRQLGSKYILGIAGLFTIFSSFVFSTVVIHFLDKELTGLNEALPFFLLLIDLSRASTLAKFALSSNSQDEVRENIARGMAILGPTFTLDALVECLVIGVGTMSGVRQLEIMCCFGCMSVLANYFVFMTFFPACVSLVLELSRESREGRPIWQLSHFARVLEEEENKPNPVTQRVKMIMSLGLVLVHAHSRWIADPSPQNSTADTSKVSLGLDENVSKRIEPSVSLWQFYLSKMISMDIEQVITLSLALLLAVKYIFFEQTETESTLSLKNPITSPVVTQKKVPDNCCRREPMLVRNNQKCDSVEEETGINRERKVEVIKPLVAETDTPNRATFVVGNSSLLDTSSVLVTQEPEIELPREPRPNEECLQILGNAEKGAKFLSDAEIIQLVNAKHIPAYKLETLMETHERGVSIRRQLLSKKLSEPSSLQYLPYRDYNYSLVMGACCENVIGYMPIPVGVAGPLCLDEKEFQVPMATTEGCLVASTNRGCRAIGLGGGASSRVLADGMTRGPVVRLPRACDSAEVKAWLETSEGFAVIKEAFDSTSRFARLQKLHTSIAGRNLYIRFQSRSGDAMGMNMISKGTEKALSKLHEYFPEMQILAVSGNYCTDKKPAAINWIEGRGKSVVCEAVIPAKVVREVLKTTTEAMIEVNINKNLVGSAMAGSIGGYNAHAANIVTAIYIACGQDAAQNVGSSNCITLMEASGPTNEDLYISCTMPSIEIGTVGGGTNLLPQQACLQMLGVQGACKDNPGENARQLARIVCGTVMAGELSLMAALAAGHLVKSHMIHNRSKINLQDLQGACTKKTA
Summary of the method: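 HepG2 cells (passage P105–P110) treated 18 hours with compounds in 10-point three-fold dilutions from 3 μM. RIPA lysates (15 μg protein, BCA-quantified) run on SDS-PAGE and immunoblotted for HMGCR (1:500) with GAPDH (1:20000) as loading control, primary antibodies 16 hours at 4° C.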

Row | SMILES | DC50 [nM]
1 | C[C@H]1C=C2C=C[C@H](C)[C@H](CC[C@@H]3C[C@@H](O[Si](C)(C)C(C)(C)C)CC(=O)O3)[C@H]2[C@@H](OC(=O)NCCOCCOCC(=O)Nc2cccc3c2C(=O)N(C2CCC(=O)NC2=O)C3=O)C1 (stereo partly drawn) [Compound 142, (1S,3R,7S,8S,8aR)-8-(2-((2R,4R)-4-((tert-butyldimethylsilyl)oxy)-6-oxotetrahydro-2H-pyran-2-yl)ethyl)-3,7-dimethyl-1,2,3,7,8,8a-hexahydronaphthalen-1-yl (2-(2-(2-((2-(2,6-dioxopiperidin-3-yl)-1,3-dioxoisoindolin-4-yl)amino)-2-oxoethoxy)ethoxy)ethyl)carbamate] | 50 to 500
2 | C[C@H]1C=C2C=C[C@H](C)[C@H](CC[C@@H]3C[C@@H](O)CC(=O)O3)[C@H]2[C@@H](OC(=O)C(C)(C)CCC(=O)NCCOCCOCCNc2cccc3c2C(=O)N(C2CCC(=O)NC2=O)C3=O)C1 (stereo partly drawn) [Compound 2, (1S,3R,7S,8S,8aR)-8-(2-((2R,4R)-4-hydroxy-6-oxotetrahydro-2H-pyran-2-yl)ethyl)-3,7-dimethyl-1,2,3,7,8,8a-hexahydronaphthalen-1-yl 5-((2-(2-(2-((2-(2,6-dioxopiperidin-3-yl)-1,3-dioxoisoindolin-4-yl)amino)ethoxy)ethoxy)ethyl)amino)-2,2-dimethyl-5-oxopentanoate] | < 50

Next, values leading:

Row | DC50 [nM] | SMILES
3 | < 50 | Cc1ncsc1-c1ccc(CNC(=O)[C@@H]2C[C@@H](O)CN2C(=O)[C@@H](NC(=O)C2(F)CC2)C(C)(C)C)c(OCCc2cn(CCCNC(=O)O[C@@H]3C[C@H](C)C=C4C=C[C@@H](C)[C@@H](CC[C@@H]5C[C@@H](O)CC(=O)O5)[C@@H]43)nn2)c1 [Compound 169, (1R,3S,7R,8R,8aS)-8-(2-((2R,4R)-4-hydroxy-6-oxotetrahydro-2H-pyran-2-yl)ethyl)-3,7-dimethyl-1,2,3,7,8,8a-hexahydronaphthalen-1-yl (3-(4-(2-(2-(((2S,4R)-1-((S)-2-(1-fluorocyclopropane-1-carboxamido)-3,3-dimethylbutanoyl)-4-hydroxypyrrolidine-2-carboxamido)methyl)-5-(4-methylthiazol-5-yl)phenoxy)ethyl)-1H-1,2,3-triazol-1-yl)propyl)carbamate]
4 | < 50 | Cc1ncsc1-c1ccc(CNC(=O)[C@@H]2C[C@@H](O)CN2C(=O)[C@@H](NC(=O)CCCc2cn(CCCCNC(=O)O[C@H]3C[C@@H](C)C=C4C=C[C@H](C)[C@H](CC[C@@H]5C[C@@H](O)CC(=O)O5)[C@H]43)nn2)C(C)(C)C)cc1 [Compound 161, (1S,3R,7S,8S,8aR)-8-(2-((2R,4R)-4-hydroxy-6-oxotetrahydro-2H-pyran-2-yl)ethyl)-3,7-dimethyl-1,2,3,7,8,8a-hexahydronaphthalen-1-yl (4-(4-(4-(((S)-1-((2S,4R)-4-hydroxy-2-((4-(4-methylthiazol-5-yl)benzyl)carbamoyl)pyrrolidin-1-yl)-3,3-dimethyl-1-oxobutan-2-yl)amino)-4-oxobutyl)-1H-1,2,3-triazol-1-yl)butyl)carbamate]
5 | < 50 | C[C@H]1C=C2C=C[C@H](C)[C@H](CC[C@@H]3C[C@@H](O)CC(=O)O3)[C@H]2[C@@H](OC(=O)NCc2ccc(OCCNc3cccc4c3C(=O)N(C3CCC(=O)NC3=O)C4=O)cc2)C1 (stereo partly drawn) [Compound 105, (1S,3R,7S,8S,8aR)-8-(2-((2R,4R)-4-hydroxy-6-oxotetrahydro-2H-pyran-2-yl)ethyl)-3,7-dimethyl-1,2,3,7,8,8a-hexahydronaphthalen-1-yl (4-(2-((2-(2,6-dioxopiperidin-3-yl)-1,3-dioxoisoindolin-4-yl)amino)ethoxy)benzyl)carbamate]
